Assay results reported in patent US10155754B2, “Substituted 2-imino-1,3-thiazolidin-4-ones as N-arachidonoylethanolamine cellular uptake inhibitors” (UNIVERSITAT BERN, priority 2014, dated 2018).
pIC50: −log10 of the molar value.

Legend:
FAAH = molecular target: T1, FAAH (Homo sapiens, UniProt O00519); assay: FAAH activity: hydrolysis of [3H]-AEA in U937 cell homogenates; assay type: biochemical; details: [3H]-AEA hydrolysis, final 100 nM AEA, read-out: FAAH inhibition IC50
T1 construct: endogenous in cells; host or cells: U937 cell homogenate
T1 sequence (O00519 1-579): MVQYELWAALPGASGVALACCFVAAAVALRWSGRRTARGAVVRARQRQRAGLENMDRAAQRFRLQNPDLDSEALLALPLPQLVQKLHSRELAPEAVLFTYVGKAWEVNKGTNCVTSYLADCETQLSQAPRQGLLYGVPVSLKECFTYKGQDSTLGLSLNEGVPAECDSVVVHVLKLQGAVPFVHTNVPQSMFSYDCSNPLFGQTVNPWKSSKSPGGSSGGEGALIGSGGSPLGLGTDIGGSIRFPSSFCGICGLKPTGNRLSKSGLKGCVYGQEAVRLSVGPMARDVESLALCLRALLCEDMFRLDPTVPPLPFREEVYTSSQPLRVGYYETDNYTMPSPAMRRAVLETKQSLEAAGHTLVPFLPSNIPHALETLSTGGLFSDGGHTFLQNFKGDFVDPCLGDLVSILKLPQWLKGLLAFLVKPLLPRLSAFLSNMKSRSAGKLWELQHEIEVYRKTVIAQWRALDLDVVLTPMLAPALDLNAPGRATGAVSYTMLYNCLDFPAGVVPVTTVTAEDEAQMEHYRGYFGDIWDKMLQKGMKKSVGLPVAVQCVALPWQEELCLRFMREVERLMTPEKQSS
Method: Hydrolysis of [^3H]-AEA by FAAH was determined as previously described in cell homogenates of U937 cells (0.18 mg protein) (Omeir et al., 1999, Biochem Biophys Res Commun, 264, 316-20; Mor et al., 2004, J Med Chem, 47, 4998-5008). Protein amounts of cell homogenates corresponded to 0.5×10^6 cells (U937), to assure best possible comparability of IC50 values as used for the AEA cellular uptake assays. URB597 was used as positive control. Protein quantification was performed using a BCA assay (Thermo Scientific). Enzyme activity was assessed by addition of vehicle or compounds in 10 μL DMSO to 490 μL homogenate in 10 mM Tris HCl, 1 mM EDTA, 0.1% (w/v) BSA fatty acid free, pH=8 and incubation for 15 min at 37° C. After, a mixture of AEA plus [ethanolamine-1-^3H]-AEA (0.5 nM) at final 100 nM was added to the homogenates and incubated for 15 min at 37° C. The reaction was stopped by addition of 1 mL ice-cold CHCl3:MeOH (1:1) followed by vigorous vortexing. Phase separation was achieved by centrifugation at 10'000×g at 4° C. for 10 min. Radioactivity of the separated aqueous phase (upper phase) containing [^3H-ethanolamine] or [^3H-glycerol] was measured by liquid scintillation counting on a Tri-Carb 2100 TR liquid scintillation analyzer after addition of 3.5 mL Ultima Gold scintillation cocktail (PerkinElmer Life Sciences). Results are expressed as hydrolysis of tritium substrate in percent of vehicle treated control. IC50 values were calculated by GraphPad®. Data are reported as means of n=3 independent experiments performed in triplicates.

[1] = system: AEA cellular uptake (U937 cells); assay: [3H]-AEA cellular uptake inhibition in U937 cells; assay type: cell-based; details: Homo sapiens, U-937, U937 cells, final 100 nM AEA with 0.5 nM [3H]-AEA, 15 min at 37° C.; read-out: AEA uptake IC50
How it was run: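 U937 cells (0.5×10^6 per sample) pre-incubated with compound (100 pM–100 μM, triplicates) for 15 min at 37 °C, then given 100 nM AEA including 0.5 nM [3H]-AEA for 15 min. Filtration, washing and scintillation counting of cell-associated radioactivity; IC50 by four-parameter nonlinear regression.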

Row | SMILES | pIC50 (FAAH) | pIC50 [1]
1 | O=C1/C(=C/c2ccc3c(c2)OCCO3)S/C(=N\c2ccc(F)cc2)N1C1CCCCC1 [24_B_I, (2Z,5Z)-2-(4-fluorophenylimino)-3-cyclohexyl-5-((2,3-dihydrobenzo[b][1,4]dioxin-6-yl)methylene)thiazolidin-4-one] | < 4.00 | 6.85
2 | CC(C)CN1C(=O)/C(=C/c2ccc3c(c2)OCCO3)S/C1=N\c1ccc(F)cc1 [24_B_X, (2Z,5Z)-2-(4-fluorophenylimino)-5-((2,3-dihydrobenzo[b][1,4]dioxin-6-yl)methylene)-3-isobutylthiazolidin-4-one] | < 4.00 | 6.79
3 | O=C1/C(=C/c2ccc3c(c2)OCCO3)S/C(=N\Cc2ccccc2)N1c1ccccc1 [24_C_N, (2Z,5Z)-2-(benzylimino)-5-((2,3-dihydrobenzo[b][1,4]dioxin-6-yl)methylene)-3-phenylthiazolidin-4-one] | 5.80 | 6.77
4 | COc1ccc(/N=C2\S/C(=C\c3ccc4c(c3)OCCO4)C(=O)N2c2ccccc2)cc1 [24_F_N, (2Z,5Z)-2-(4-methoxyphenylimino)-5-((2,3-dihydrobenzo[b][1,4]dioxin-6-yl)methylene)-3-phenylthiazolidin-4-one] | < 4.00 | 6.03
5 | Cc1ccc(N2C(=O)/C(=C/c3ccc4c(c3)OCCO4)S/C2=N\c2ccccc2)cc1 [24_N_A, (2Z,5Z)-5-((2,3-dihydrobenzo[b][1,4]dioxin-6-yl)methylene)-2-(phenylimino)-3-p-tolylthiazolidin-4-one] | < 4.00 | 6.48
6 | O=C1/C(=C/c2ccc3c(c2)OCCO3)S/C(=N\c2ccccc2)N1c1ccc(F)cc1 [24_N_B, (2Z,5Z)-3-(4-fluorophenyl)-5-((2,3-dihydrobenzo[b][1,4]dioxin-6-yl)methylene)-2-(phenylimino)thiazolidin-4-one] | < 4.00 | 6.18
7 | O=C1/C(=C/c2ccc3c(c2)OCCO3)S/C(=N\c2ccccc2)N1C1CCCCC1 [24_N_I, (2Z,5Z)-3-cyclohexyl-5-((2,3-dihydrobenzo[b][1,4]dioxin-6-yl)methylene)-2-(phenylimino)thiazolidin-4-one] | < 4.00 | 6.34
8 | CC(C)CN1C(=O)/C(=C/c2ccc3c(c2)OCCO3)S/C1=N\c1ccccc1 [24_N_X, (2Z,5Z)-5-((2,3-dihydrobenzo[b][1,4]dioxin-6-yl)methylene)-3-isobutyl-2-(phenylimino)thiazolidin-4-one] | < 4.00 | 6.76
9 | Cc1ccc(N2C(=O)/C(=C/c3ccc4c(c3)OCCO4)S/C2=N\Cc2ccc(F)cc2)cc1 [24_P_A, (2Z,5Z)-2-(4-fluorobenzylimino)-5-((2,3-dihydrobenzo[b][1,4]dioxin-6-yl)methylene)-3-p-tolylthiazolidin-4-one] | 5.82 | 6.75
10 | O=C1/C(=C/c2ccc3c(c2)OCCO3)S/C(=N\Cc2ccc(F)cc2)N1c1ccc(F)cc1 [24_P_B, (2Z,5Z)-2-(4-fluorobenzylimino)-3-(4-fluorophenyl)-5-((2,3-dihydrobenzo[b][1,4]dioxin-6-yl)methylene)thiazolidin-4-one] | 4.95 | 5.98
11 | O=C1/C(=C/c2ccc3c(c2)OCCO3)S/C(=N\Cc2ccc(F)cc2)N1C1CCCCC1 [24_P_I, (2Z,5Z)-2-(4-fluorobenzylimino)-3-cyclohexyl-5-((2,3-dihydrobenzo[b][1,4]dioxin-6-yl)methylene)thiazolidin-4-one] | 6.77 | 7.06
12 | O=C1/C(=C/c2ccc3c(c2)OCCO3)S/C(=N\Cc2ccc(F)cc2)N1c1ccc(Cl)cc1 [24_P_L, (2Z,5Z)-2-(4-fluorobenzylimino)-3-(4-chlorophenyl)-5-((2,3-dihydrobenzo[b][1,4]dioxin-6-yl)methylene)thiazolidin-4-one] | 6.21 | 7.29
13 | O=C1/C(=C/c2ccc3c(c2)OCCO3)S/C(=N\Cc2ccc(F)cc2)N1c1ccccc1 [24_P_N, (2Z,5Z)-2-(4-fluorobenzylimino)-5-((2,3-dihydrobenzo[b][1,4]dioxin-6-yl)methylene)-3-phenylthiazolidin-4-one] | 6.04 | 6.28
14 | CC(C)CN1C(=O)/C(=C/c2ccc3c(c2)OCCO3)S/C1=N\Cc1ccc(F)cc1 [24_P_X, (2Z,5Z)-2-(4-fluorobenzylimino)-5-((2,3-dihydrobenzo[b][1,4]dioxin-6-yl)methylene)-3-isobutylthiazolidin-4-one] | 5.58 | 6.29
15 | COc1ccc(C/N=C2\S/C(=C\c3ccc4c(c3)OCCO4)C(=O)N2c2ccc(C)cc2)cc1 [24_Q_A, (2Z,5Z)-2-(4-methoxybenzylimino)-5-((2,3-dihydrobenzo[b][1,4]dioxin-6-yl)methylene)-3-p-tolylthiazolidin-4-one] | < 4.00 | 6.79
16 | COc1ccc(C/N=C2\S/C(=C\c3ccc4c(c3)OCCO4)C(=O)N2c2ccc(F)cc2)cc1 [24_Q_B, (2Z,5Z)-2-(4-methoxybenzylimino)-3-(4-fluorophenyl)-5-((2,3-dihydrobenzo[b][1,4]dioxin-6-yl)methylene)thiazolidin-4-one] | 5.89 | 7.48
17 | COc1ccc(C/N=C2\S/C(=C\c3ccc4c(c3)OCCO4)C(=O)N2C2CCCCC2)cc1 [24_Q_I, (2Z,5Z)-2-(4-methoxybenzylimino)-3-cyclohexyl-5-((2,3-dihydrobenzo[b][1,4]dioxin-6-yl)methylene)thiazolidin-4-one] | 7.43 | 7.46
18 | COc1ccc(C/N=C2\S/C(=C\c3ccc4c(c3)OCCO4)C(=O)N2c2ccc(Cl)cc2)cc1 [24_Q_L, (2Z,5Z)-2-(4-methoxybenzylimino)-3-(4-chlorophenyl)-5-((2,3-dihydrobenzo[b][1,4]dioxin-6-yl)methylene)thiazolidin-4-one] | 6.09 | 7.07
19 | COc1ccc(C/N=C2\S/C(=C\c3ccc4c(c3)OCCO4)C(=O)N2c2ccccc2)cc1 [24_Q_N, (2Z,5Z)-2-(4-methoxybenzylimino)-5-((2,3-dihydrobenzo[b][1,4]dioxin-7-yl)methylene)-3-phenylthiazolidin-4-one] | 6.36 | 6.43
20 | COc1ccc(C/N=C2\S/C(=C\c3ccc4c(c3)OCCO4)C(=O)N2CC(C)C)cc1 [24_Q_X, (2Z,5Z)-2-(4-methoxybenzylimino)-5-((2,3-dihydrobenzo[b][1,4]dioxin-6-yl)methylene)-3-isobutylthiazolidin-4-one] | 6.37 | 6.86
21 | Cc1ccc(/N=C2\S/C(=C\c3ccc4c(cnn4C)c3)C(=O)N2C2CCCCC2)cc1 [28_A_I, (2Z,5Z)-2-(p-tolylimino)-3-cyclohexyl-5-((1-methyl-1H-indazol-5-yl)methylene)thiazolidin-4-one] | < 4.00 | 6.41
22 | Cc1ccc(/N=C2\S/C(=C\c3ccc4c(cnn4C)c3)C(=O)N2CC(C)C)cc1 [28_A_X, (2Z,5Z)-2-(p-tolylimino)-3-isobutyl-5-((1-methyl-1H-indazol-5-yl)methylene)thiazolidin-4-one] | < 4.00 | 6.45
23 | Cc1ccc(/N=C2\S/C(=C\c3ccc4ncsc4c3)C(=O)N2C2CCCCC2)cc1 [32_A_I, (2Z,5Z)-2-(p-tolylimino)-5-((benzo[d]thiazol-6-yl)methylene)-3-cyclohexylthiazolidin-4-one] | < 4.00 | 6.47
